This note sets out measurements from patent US20150337013A1, “NOVEL ANTIBACTERIAL AGENTS FOR THE TREATMENT OF GRAM POSITIVE INFECTIONS” (priority 2008, published 2015).

The test system of assay [1] is Enterococcus faecalis EFS.201 (ATCC 49452). Format: cell-based. The note with it: ATCC 49452. On the procedure: (§1) Compounds according to Formula I were tested for antimicrobial activity against a panel of organisms. Aerobic organisms, Staphylococcus aureus, Enterococcus faecalis and E. faecium, were tested by broth microdilution according to Clinical and Laboratory Standards Institute (CLSI) document M7-A7 (Clinical and Laboratory Standards Institute. Methods for Dilution Antimicrobial Susceptibility Tests for Bacteria that Grow Aerobically; Approved Standard—Seventh Edition. CLSI document M7-A7 [ISBN 1-56238-587-9]. Clinical and Laboratory Standards Institute, 940 West Valley Road, Suite 1400, Wayne, Pa. 19087-1898 USA, 2006) with modifications as described below. Mueller Hinton Broth (MHBc) was supplemented with 50 mg/L calcium (equivalent to human physiological levels of calcium) and assay plates were incubated 18-20 hours at 37° C. with aeration (200 rpm).
(§2) In all cases the final concentration of dimethyl sulfoxide incubated with cells is less than or equal to 1%. For minimum inhibitory concentration (MIC) calculations, 2-fold dilutions of compounds were added to wells of a microtiter plate containing 5×10^5 bacteria in a final volume of 100 μL of media. Following incubation, (18-20 hours at 37° C. with aeration at 200 rpm) growth was confirmed visually by placing plates over a viewing apparatus (stand with a mirror underneath) and then the optical density (OD600) was measured using a SpectraMax 340PC^384 plate reader. Growth was defined as turbidity that could be detected with the naked eye or achieving minimum OD600of 0.1. MIC values (in μg/mL) were defined as the lowest concentration producing no visible turbidity.

Assay [2] concerns Enterococcus faecium EFM.14 (ATCC 6569). Format: cell-based. The note with it: ATCC 6569. The method, then: as §1, §2
Assay [3] has as its system Staphylococcus aureus SAU.399 (ATCC 43300), Methicillin and Oxacillin Resistant. Format: cell-based. The note with it: ATCC 43300. On the procedure: as §1, §2
Assay [4] concerns Staphylococcus aureus SAU.42 (ATCC 29213). In kind it is cell-based. The settings on record: ATCC 29213. The method, then: as §1, §2
The test system of assay [5] is Enterococcus faecalis EFS.312, Daptomycin resistant mutant (EFA). In kind it is cell-based. The settings on record: MHBc with 50 mg/L calcium, 18-20 hours at 37° C. The method, then: as §1, §2
For assay [6], the system named is Enterococcus faecium EFM.384, Daptomycin resistant mutant (14-A). Format: cell-based. The note with it: MHBc with 50 mg/L calcium, 18-20 hours at 37° C. On the procedure:
as §1, §2

In assay [7] the test system is Staphylococcus aureus SAU.278, Daptomycin resistant mutant (D10). In kind it is cell-based. The note with it: MHBc with 50 mg/L calcium, 18-20 hours at 37° C. The method, then: as §1, §2

Where only a bound is given, the exact number is not on record here.

For the compound `CCCCCCC1CCC(c2ccc(C(=O)N[C@@H](Cc3c[nH]c4ccccc34)C(=O)N[C@H](CC(N)=O)C(=O)N[C@@H](CC(=O)O)C(=O)N[C@@H]3C(=O)NCC(=O)N[C@@H](CCCN)C(=O)N[C@@H](CC(=O)O)C(=O)N[C@H](C)C(=O)N[C@@H](CC(=O)O)C(=O)NCC(=O)N[C@H](CO)C(=O)N[C@@H]([C@H](C)CC(=O)O)C(=O)N[C@@H](CC(=O)c4ccccc4N)C(=O)O[C@@H]3C)cc2)CC1` (single isomer, unassigned) [54 isomer II], the “Efs201 MIC” value in assay [1] worked out at 2 µg/mL. For the same compound, the “Efm14 MIC” value in assay [2] came to 1 µg/mL. For the same compound, the “Sa399 MIC” value in assay [3] is 1 µg/mL. The “Sa42 MIC” value in assay [4] was 1 µg/mL. Further, the “C. diff MIC90” value with Clostridium difficile was 4 µg/mL.
With `CC(C)Sc1ccc(-c2csc(C(=O)N[C@@H](Cc3c[nH]c4ccccc34)C(=O)N[C@H](CC(N)=O)C(=O)N[C@@H](CC(=O)O)C(=O)N[C@@H]3C(=O)NCC(=O)N[C@@H](CCCN)C(=O)N[C@@H](CC(=O)O)C(=O)N[C@H](C)C(=O)N[C@@H](CC(=O)O)C(=O)NCC(=O)N[C@H](CO)C(=O)N[C@@H]([C@H](C)CC(=O)O)C(=O)N[C@@H](CC(=O)c4ccccc4N)C(=O)O[C@@H]3C)c2)cc1` [Compound 55], in assay [1], the “Efs201 MIC” value came to 2 µg/mL. In assay [5], the “Efs312 MIC” value was greater than 32 µg/mL. The “Efm14 MIC” value in assay [2] amounted to 2 µg/mL. For the same compound, the “Efm384 MIC” value in assay [6] is 8 µg/mL. In assay [7], the “Sa278 MIC” value is 4 µg/mL. Also, the “Sa399 MIC” value in assay [3] is 0.25 µg/mL. For the same compound, the “Sa42 MIC” value in assay [4] worked out at 0.5 µg/mL.
With `CCCSc1ccc(-c2csc(C(=O)N[C@@H](Cc3c[nH]c4ccccc34)C(=O)N[C@H](CC(N)=O)C(=O)N[C@@H](CC(=O)O)C(=O)N[C@@H]3C(=O)NCC(=O)N[C@@H](CCCN)C(=O)N[C@@H](CC(=O)O)C(=O)N[C@H](C)C(=O)N[C@@H](CC(=O)O)C(=O)NCC(=O)N[C@H](CO)C(=O)N[C@@H]([C@H](C)CC(=O)O)C(=O)N[C@@H](CC(=O)c4ccccc4N)C(=O)O[C@@H]3C)c2)cc1` [Compound 56], the “Efs201 MIC” value in assay [1] came out at 8 µg/mL. Moreover, in assay [5], the “Efs312 MIC” value was greater than 32 µg/mL. The “Efm14 MIC” value in assay [2] was found to be 8 µg/mL. Moreover, in assay [6], the “Efm384 MIC” value stood at 32 µg/mL. For the same compound, the “Sa278 MIC” value in assay [7] came out at 8 µg/mL. Besides, in assay [3], the “Sa399 MIC” value was determined as 2 µg/mL. Moreover, in assay [4], the “Sa42 MIC” value is 2 µg/mL.
On to `CCCCOc1ccc(-c2ccc(C(=O)N[C@@H](Cc3c[nH]c4ccccc34)C(=O)N[C@H](CC(N)=O)C(=O)N[C@@H](CC(=O)O)C(=O)N[C@@H]3C(=O)NCC(=O)N[C@@H](CCCN)C(=O)N[C@@H](CC(=O)O)C(=O)N[C@H](C)C(=O)N[C@@H](CC(=O)O)C(=O)NCC(=O)N[C@H](CO)C(=O)N[C@@H]([C@H](C)CC(=O)O)C(=O)N[C@@H](CC(=O)c4ccccc4N)C(=O)O[C@@H]3C)cc2)cc1` [Compound 60], for which the “Efs201 MIC” value in assay [1] came to 4 µg/mL. In assay [5], the “Efs312 MIC” value was greater than 32 µg/mL. Also, the “Efm14 MIC” value in assay [2] worked out at 4 µg/mL. In addition, the “Efm384 MIC” value in assay [6] came to 16 µg/mL. Besides, in assay [7], the “Sa278 MIC” value stood at 8 µg/mL. The “Sa399 MIC” value in assay [3] was determined as 4 µg/mL. Also, the “Sa42 MIC” value in assay [4] is 1 µg/mL.
Regarding `C[C@H](CC(=O)O)[C@@H]1NC(=O)[C@@H](CO)NC(=O)CNC(=O)[C@H](CC(=O)O)NC(=O)[C@@H](C)NC(=O)[C@H](CC(=O)O)NC(=O)[C@H](CCCN)NC(=O)CNC(=O)[C@@H](NC(=O)[C@H](CC(=O)O)NC(=O)[C@@H](CC(N)=O)NC(=O)[C@H](Cc2c[nH]c3ccccc23)NC(=O)Cc2ccc(-c3ccc(Cl)cc3)cc2)[C@@H](C)OC(=O)[C@H](CC(=O)c2ccccc2N)NC1=O` [Compound 65], the “Efs201 MIC” value in assay [1] is 8 µg/mL. Further, the “Efs312 MIC” value in assay [5] was greater than 32 µg/mL. Besides, the “Efm14 MIC” value in assay [2] turned out to be 8 µg/mL. Besides, the “Efm384 MIC” value in assay [6] is greater than 32 µg/mL. Also, in assay [7], the “Sa278 MIC” value is 16 µg/mL. Moreover, the “Sa399 MIC” value in assay [3] was 2 µg/mL. The “Sa42 MIC” value in assay [4] stood at 2 µg/mL.
